In patent US7601373B2, “Equine feed product” (priority 2002, dated 2009):

Assays:
[1] = tested on: foals, yearlings and adult horses; assay: Example Five: calcium feeding trials at various stages of development; format: in vivo, horse
Experimental: A number of trials were conducted on horses throughout various stages of development fed with varying levels of calcium. The first two trials were conducted on twelve foals over a nine month period. The trial began when the foals were aged three months. […] Each foal was fed 2.5 g of Calcium a day within a balanced diet for a period of three months. The Calcium dosage was then increased to 5.0 g a day for a further period of six months as the foals average weight had increased to 240 kg.
The third trial comprised a group of ten yearlings with average weight 425 kg body. The yearlings were fed 7.5 g of Calcium a day over a period of ten weeks. The fourth trial was conducted on adult horses with average body weight of 500 kg aged 18+ months. Each adult horse was fed 10.0 g of Calcium per day.

thoroughbred yearlings = assay: Example Three: inorganic versus chelated copper with chelated zinc in feed supplement; format: in vivo, horse; conditions: 100 mg/day copper and 300 mg/day chelated zinc in 100 g/day supplement, ten weeks, grass high in molybdenum
Experimental: A trial was conducted on ten thoroughbred yearlings (six colts and four fillies) using optimum levels of copper and zinc. The horses were divided into two groups with five horses in each group. The trials were conducted over a period of ten weeks. During this period the horses were stabled, each horse was handwalked for one hour a day and put to grass for three hours a day.
The copper used in the feed supplement for the first group of five horses was inorganic copper, copper sulfate whilst the copper used in the oat-balancing feed supplement for the second group was chelated copper. The horses has an average body weight of 425 kg. The horses were fed a combined diet of Ryegrass Hay, Rolled Irish Oats, Cooked Flaxseed and the feed supplement.
In trial one, 100 g of the oat balancing feed supplement was fed to each horse daily. There was 100 mg of inorganic copper in present in the oat balancing feed supplement.
Group 1: 100 mg/day Inorganic Copper & 300 mg/day Chelated Zinc
In the second group the five horses were fed the same combined diet however the copper present in the feed supplement was chelated copper. Again there was 100 mg of copper present in 100 g of the oat balancing feed supplement.
Group 2: 100 mg/day Chelated Copper & 300 mg/day Chelated Zinc

[2] = tested on: poor performing racehorses; conditions: six anaemic racehorses, within a matter of weeks; cited from earlier work
horses [3] = assay: Example One: amino acid feeding trial with varied lysine; PCV, haemoglobin, coat colour, racecourse performance; format: in vivo, horse; conditions: 15 g/day lysine with 5 g/day methionine and 5 g/day threonine
Experimental: Lysine, methionine and threonine are essential amino acids. Trials were conducted on eleven horses (eight geldings and three fillies) where the horses were randomly split into three groups. Two groups contained four horses and the third group contained three horses. The horses varied in age between three and eight years old with an average body weight of 500 kg. The Packed Cell Volumes (PCVs) and haemoglobin levels of each horse were tested. Visual observations such as coat colour and racecourse performances were also monitored. In these Example all three amino acids were administered to the horses together as all three amino acids are essential. The quantities of methionine and threonine were constant for each group whilst the quantity of lysine was varied between the groups. Oats are deficient in lysine therefore it is necessary to boost the horses intake of lysine while maintaining a constant level of methionine and threonine
Quantities of Amino Acid Administered to Horses Daily

horses [4] = assay: Example Four: magnesium supplementation, Stress Tetany and performance; format: in vivo, horse
Text: Magnesium is considered to be an essential daily mineral in equine diets. A deficiency of magnesium in the diet in conjunction with any condition that will produce stress can lead to Stress Tetany. An example of a stress-causing condition is transportation of the horse over long distances. […] Some weeks later the same horse was transported to another location. The journey lasted approximately four hours.
Trials conducted where the quantity of magnesium introduced into the horse was varied from 2 g/day of magnesium oxide to 4 g/day of magnesium oxide.

Q: Which results are given for [Ca+2] [Calcium]?
A: bone development, limb formation and weight gain ([1]; 2.5 to 10.0 g/day Calcium according to age): clinically adequate bone development, correct limb formation and normal weight gain; Average weight at 6 months ([1]; Foals 3-6 months, 2.5 g/day Calcium, 118 Kg at 3 months): 240 Kg at 6 months; Average weight at 12 months ([1]; Foals 6-12 months, 5.0 g/day Calcium, 240 Kg at 6 months): 375 Kg at 12 months; Average weight at 18 months ([1]; Yearlings 12-18 months, 7.5 g/day Calcium, 375 Kg at 12 months): 475 Kg at 18 months

Q: Which coat colour (thoroughbred yearlings) does the source give for O=S(=O)([O-])[O-].[Cu+2] [Inorganic Copper, copper sulfate] here?
A: Its coat colour is “poor coat colour”.

Q: And the red cell production (thoroughbred yearlings)?
A: Its red cell production is “decreased red cell production”.

Q: And the thrive (thoroughbred yearlings)?
A: Its thrive is “lack of thrive”.

Q: Which red cell parameters [2] does the source give for N[C@@H](Cc1cc(I)c(Oc2cc(I)c(O)c(I)c2)c(I)c1)C(=O)O [Thyroxine] here?
A: The red cell parameters was “all elevated”.

Q: Which “coat colour and racecourse performance” value (horses [3]) does the source give for NCCCC[C@H](N)C(=O)O [lysine] here?
A: Its value is “optimum coat colour and racecourse performance”.

Q: What about the PCV levels (horses [3]; average of horses, 500 kg) of the same molecule?
A: The PCV levels was over 42 per cent per liter.

Q: What about the haemoglobin levels (horses [3]; average of horses, 500 kg) of the same molecule?
A: The haemoglobin levels was over 14 g per deciliter.

Q: What does the source list for [O]=[Mg] [magnesium oxide]?
A: performance (horses [4]; 4 g/day of magnesium oxide (varied from 2 g/day to 4 g/day)): optimum performance; temperament, weight and coat colour (horses [4]; magnesium oxide 4 g/day): improvement in the temperament of the horse was observed in conjunction with weight gain and better coat colour
